“Also recorded” adds a separate entry of the source.
Legend:
Human IgG = experiment: SPR IgG binding assay on gold (Example 4); details: IgG 10-100 ug/mL, polyacrylic acid on gold, FIG. 7
Procedure: Slides were then rinsed in Ethanol and incubated in a solution of 1% Polyacrylic acid. 2% w/v Polyacrylic acid was prepared by adding […] of Stock 10% w/v PAA solution (Poly(Acrylic Acid) MW 50K 10% w/v solution in DMF) to […] (N,N-Dimethylformamide (DMF) Labscan HPLC Grade—Dried over sieves and filtered). 100 mM solutions of NHS and DIC were prepared in dry DMF (N-Hydroxysuccinimide (NHS) (Aldrich cat: 130672), N,N′-Diisopropylcarbodiimide (DIC) (Sigma Aldrich cat: D125407)). 15 mL of 100 mM NHS and 15 mL of 100 mM DIC were added to 30 mL of 2% w/v of PAA solution and shaken on a RATEK platform mixer with speed setting 70 for 10 minutes. This gave a final 1.0% w/v solution of activated PAA. Each amino functionalized gold slide was placed in 10 mL of activated 1% wlv PAA solution and allowed to shake on a RATEK platform mixer with speed setting […] for 1 hour. The slides were then rinsed with dry DMF and using house nitrogen with a filter pipette tip in the end of the hose, the slides were blown dry using a concentrated flow over each slide. […]
The first concentration of IgG to be flowed through the cell and over the slide was 10 μg/mL. […] After the final concentration of 100 μg/mL IgG was analyzed, the signal was monitored by flowing 10 mM Phosphate Buffered Saline pH7.4 with 0.2% Tween20 over the slide. […]

Fc of an antibody = details: Protein A binding region; cited from earlier work

## NCCNc1nc(NCCc2ccc(O)cc2)nc(Nc2ccccc2)n1 [APA, 2-(2-aminoethylamino)-4-anilino-6-tyramino-s-triazine]
Human IgG
  IgG binding by SPR: poor or non-existent
Fc of an antibody
  affinity for the Fc of an antibody: medium affinity; also recorded: weakly binds

Reference: patent publication US20090306342A1, “BINDING OF MOLECULES” (BIO-LAYER PTY LIMITED, priority 2005, published 2009)
